Measurements as given in ChEMBL document CHEMBL1135183, “Design and synthesis of C-8 linked pyrrolobenzodiazepine-naphthalimide hybrids as anti-tumour agents” (2002).

What was measured:
Assay type in all cases: functional
[1] = tested on: Panel melanoma (Carcinoma cell lines); test: Concentration of compound causing 50% lethality in Melanoma cell lines was determined; conditions: Homo sapiens, read-out: Log LC50 (the source's name) (converted)
[2] = tested on: Panel breast (Carcinoma cell lines); test: Concentration of compound causing 50% lethality in Breast cell lines was determined; conditions: Homo sapiens, read-out: Log LC50 (the source's name) (converted)
[3] = tested on: Panel colon (Carcinoma cell lines); test: Concentration of compound causing 50% lethality in Colon cell lines was determined; conditions: Homo sapiens
[4] = tested on: Panel prostate (Carcinoma cell lines); test: Concentration of compound causing 50% lethality in Prostate cell lines was determined; conditions: Homo sapiens, read-out: Log LC50 (the source's name) (converted)
leukaemia cell line = test: Concentration of compound causing 50% lethality in Leukemia cell lines was determined; conditions: Homo sapiens, read-out: Log LC50 (the source's name) (converted)
[5] = tested on: Panel renal (Carcinoma cell lines); test: Concentration of compound causing 50% lethality in Renal cell lines was determined; conditions: Homo sapiens
[6] = tested on: Panel CNS (Carcinoma cell lines); test: Concentration of compound causing 50% lethality in CNS cell lines was determined; conditions: Homo sapiens, read-out: Log LC50 (the source's name) (converted)
[7] = tested on: Panel ovarian (Carcinoma cell lines); test: Concentration of compound causing 50% lethality in Ovarian cell lines was determined; conditions: Homo sapiens, read-out: Log LC50 (the source's name) (converted)
NSCLC = test: Concentration of compound causing 50% lethality in Non-small-cell lung cell lines was determined; conditions: Homo sapiens, read-out: Log LC50 (the source's name) (converted)

Row | Compound | CC50 [1] | CC50 [2] | LC50 [3] | CC50 [4] | CC50 (leukaemia cell line) | LC50 (concentration causing 50% cell lethality) [5] | CC50 [6] | CC50 [7] | CC50 (NSCLC)
1 | COc1cc2c(cc1OCCCCCCCN1C(=O)c3cccc4cccc(c34)C1=O)N=C[C@@H]1CCCN1C2=O | 37.2 µM | 43.7 µM | 38.9 µM | > 100 µM | > 100 µM | 93.3 µM | > 100 µM | 87.1 µM | 45.7 µM
2 | COc1cc2c(cc1OCCCCCN1C(=O)c3cccc4cccc(c34)C1=O)N=C[C@@H]1CCCN1C2=O | 58.9 µM | 60.3 µM | 45.7 µM | 61.7 µM | 72.4 µM | 30.9 µM | 72.4 µM | 81.3 µM | 69.2 µM
3 | COc1cc2c(cc1OCCCN1C(=O)c3cccc4cccc(c34)C1=O)N=C[C@@H]1CCCN1C2=O | 97.7 µM | > 100 µM | 97.7 µM | > 100 µM | 77.6 µM | 91.2 µM | > 100 µM | 97.7 µM | 89.1 µM
4 | COc1cc2c(cc1OCCCCCCCCCCCCCCCCCN1C(=O)c3cccc4cccc(c34)C1=O)N=C[C@@H]1CCCN1C2=O | 64.6 µM | 85.1 µM | 75.9 µM | 66.1 µM | 61.7 µM | 81.3 µM | 51.3 µM | 77.6 µM | 83.2 µM
5 | COc1cc2c(cc1OCCCCCCCCCCCCCN1C(=O)c3cccc4cccc(c34)C1=O)N=C[C@@H]1CCCN1C2=O | 81.3 µM | 95.5 µM | 83.2 µM | 93.3 µM | 77.6 µM | 95.5 µM | 77.6 µM | 85.1 µM | > 100 µM
